Several values for one entry are separate records, joined by “and”; a condition that tells them apart may be missing. Equal entries are not always repeated.
Assays:
[1] = system: RAW 264.7 murine macrophage cell line; assay: Nitrite (NO) production in LPS-stimulated RAW 264.7 macrophages; format: cell-based; conditions: co-stimulated with LPS 10 microg/ml, peptide even at 1 pg/ml, 24 hours
Protocol: Cell culture. The RAW 264.7 murine macrophage cell line, obtained from American Type Culture Collection (Manassas, Va., USA), were cultured at 37° C. in 5% CO2 using DMEM containing 10% fetal calf serum (FCS), 50 U/ml penicillin, 50 μg/ml streptomycin, […] Na-pyruvate, 2 mM glutamine and 50 μM 2-mercaptoethanol (Bio Whittaker, Europe). The medium was changed every 2 days.
Nitrite measurements. Nitrite production was measured in the RAW 264.7 macrophage supernatants. The cells (7.5×10^5/ml) were cultured in 48-well plates in […] of culture medium. The cells were stimulated with LPS (10 microg/ml) and/or peptide (1 pg/ml, 1 ng/ml, 1 μg/ml) for 24 hours, then the culture media were collected. Nitrite was measured by adding 100 microl of Griess reagent (Sigma) to 100 microl samples of culture medium. The OD540 was measured using a microplate reader, and the nitrite concentration was calculated by comparison with the OD540 produced using standard solutions of sodium nitrite in the culture medium.

[2] = system: mice, 25 minutes renal ischemia/reperfusion; assay: Mouse renal ischemia reperfusion test (mortality, BUN/serum urea); format: in vivo; design: BUN, mean / Urea level: unit not given here; conditions: 5 mg/kg i.v.
Protocol: SEQ ID NO:2 was tested and compared with PBS (control) in a double blind animal study for the peptide's relative ability to aid recovery in a mouse renal ischemia reperfusion test. In this test, the mice were anesthetized, and one kidney from each mouse was removed. The other kidney was tied off for 25 minutes, and the serum urea levels were allowed to increase. Both before and after tying off, the peptide was administered to thirty (30) different mice (5 mg oligopeptide/kg body mass intravenously), after which, the mortality of the mice was determined for each oligopeptide as well as was the BUN concentration at two hours, 24 hours and 72 hours.
Under inhalation anesthesia, the left kidney with its artery and vein was isolated and occluded for 25 minutes using a microvascular clamp. During surgery animals were placed on a heating path to maintain body temperature at 37° C. Five minutes before placing the clamp, and 5 minutes before releasing the clamp, 5 mg/kg of peptide, dissolved in 0.1 mL of sterile saline, was administered intravenously. After reperfusion of the left kidney the right kidney was removed. Kidney function was assessed by measuring blood urea nitrogen before clamping, and at 2, 24, and 72 hours after reperfusion.
To determine dose-response relationships SEQ ID NO:2, was tested in a dose-response manner in the mice test as described above. Peptides were tested at 0.3, 1, 3, 10 and 30 mg/kg dosages given as described in Example I. Serum urea levels are presented in Table 3.

[3] = system: BALB/c mice injected i.p. with LPS (E. coli 026:B6); assay: LPS-induced septic shock (endotoxin model) in BALB/c mice; format: in vivo, mouse
Protocol: Mice used in sepsis or septic shock experiments: Female BALB/c mice of 8-12 weeks of age were used for all experiments. The animals were bred in our facility under specific pathogen-free conditions according to the protocols described in the Report of European Laboratory Animal Science Associations (FELASA) Working group on Animal Health (Laboratory Animals 28: 1-24, 1994).
Injection protocols: For the endotoxin model, BALB/c mice were injected i.p. with 150-300 μg LPS (E. coli 026:B6; Difco Lab., Detroit, Mich., USA). Control groups were treated with PBS i.p. only. To test the effect of peptides, they were dissolved in PBS and injected i.p. at predetermined points in time after LPS treatment.
Mice were scored for sickness severity using the following measurement scheme: • 0 No abnormalities. • 1 Percolated fur, but no detectable behavior differences compared to normal mice. • 2 Percolated fur, huddle reflex, responds to stimuli (such as tap on cage), just as active during handling as healthy mouse. • 3 Slower response to tap on cage, passive or docile when handled, but still curious when alone in a new setting. • 4 Lack of curiosity, little or no response to stimuli, quite immobile. • 5 Labored breathing, inability or slow to self-right after being rolled onto back (moribund, sacrificed). • D Dead […]
A comparative trial was set up to compare peptide MTR and SEQ ID NO:2. The comparative trial comprised 6 groups of 6 animals; two groups (1A and 1B) receiving placebo (PBS), one group (2) peptide MTR (source Pepscan, Lelystad, NL), one group (3) receiving peptide MTR (source Ansynth), one group (4) receiving peptide SEQ ID NO:2 (source Pepscan) and one group peptide SEQ ID NO:2 (source Ansynth). Peptide/placebo in these groups was administered 2 hours after LPS. LPS (source) was used at 10-11 mg/kg. Sickness scores were done at 0, 2, 22 26 42 and 48 hours after LPS injection.

[4] = system: mice, high dose LPS septic shock; conditions: single treatment after high dose LPS injection; cited from earlier work
[5] = peptide twice (t = 2 hr and 24 hr) 5 mg/kg, LPS dose 11, t = 24 hr
[6] = peptide twice (t = 2 hr and 24 hr) 5 mg/kg, LPS dose 11, t = 48 hr
[7] = single dose 5 mg/kg, LPS dose 7*, t = 24 hr
[8] = single dose 5 mg/kg, LPS dose 8, t = 24 hr
[9] = single dose 5 mg/kg, LPS dose 8, t = 48 hr
[10] = single dose 5 mg/kg, LPS dose 10, t = 24 hr
[11] = single dose 5 mg/kg, LPS dose 10, t = 48 hr

## LQGV [tetrapeptide from loop 2 of the beta-subunit of hCG]
[1]
  NO production: inhibited the production of NO
[2]; 2 hr after reperfusion
  BUN, mean: 17.53
[2]; 24 hr after reperfusion
  BUN, mean: 56.08
[2]; 72 hr after reperfusion
  BUN, mean: 73.18
[2]; t = 0 hr (before clamping)
  BUN, mean: 7.518
[3]; 5 mg/kg i.p. after varying doses of LPS (Table 6)
  effect against LPS-induced sepsis: marked protective effect
[3]; peptide twice (t = 2 hr and 24 hr) 5 mg/kg, LPS dose 10.5, t = 24 hr
  number of mice with sickness score 5: 5
[3]; peptide twice (t = 2 hr and 24 hr) 5 mg/kg, LPS dose 10.5, t = 48 hr
  number of mice with score D (dead): 5
[3]; [5]
  number of mice with sickness score 4: 2
  number of mice with sickness score 5: 4
[3]; [6]
  number of mice with score D (dead): 4
  number of mice with sickness score 4: 2
[3]; single dose 5 mg/kg, LPS dose 7**, t = 24 hr
  number of mice with sickness score 1: 6
[3]; single dose 5 mg/kg, LPS dose 7**, t = 48 hr
  number of mice with sickness score 1: 6
[3]; [7]
  number of mice with sickness score 1: 2
  number of mice with sickness score 2: 4
[3]; single dose 5 mg/kg, LPS dose 7*, t = 48 hr
  number of mice with sickness score 1: 6
[3]; [8]
  number of mice with sickness score 1: 3
  number of mice with sickness score 3: 1
[3]; single dose 5 mg/kg, LPS dose 8, t = 24 hr, 5 mg/kg
  number of mice with sickness score 2: 5 and 3
[3]; [9]
  number of mice with sickness score 0: 4
  number of mice with sickness score 2: 1
[3]; [10]
  number of mice with sickness score 1: 2
  number of mice with sickness score 3: 1
  number of mice with sickness score 4: 1
[3]; [11]
  number of mice with score D (dead): 1
  number of mice with sickness score 2: 1
[3]; single dose 5 mg/kg, LPS dose 10, t = 48 hr, 5 mg/kg
  number of mice with sickness score 1: 6 and 4
[3]; single injection 5 mg/kg 2 hours after LPS (300 μg), time 0 hours
  % survival: 100%
[3]; single injection 5 mg/kg 2 hours after LPS, time 14 hours
  % survival: 100%
[3]; single injection 5 mg/kg 2 hours after LPS, time 24 hours
  % survival: 100%
[3]; single injection 5 mg/kg 2 hours after LPS, time 48 hours
  % survival: 100%
[3]; single injection 5 mg/kg 2 hours after LPS, time 84 hours
  % survival: 100%
[3]; single injection 5 mg/kg 24 hours after LPS (300 μg), time 0 hours
  % survival: 100%
[3]; single injection 5 mg/kg 24 hours after LPS, time 14 hours
  % survival: 100%
[3]; single injection 5 mg/kg 24 hours after LPS, time 24 hours
  % survival: 100%
[3]; single injection 5 mg/kg 24 hours after LPS, time 48 hours
  % survival: 0%
[3]; single injection 5 mg/kg 24 hours after LPS, time 84 hours
  % survival: 0%

## VLPALP [6-mer oligopeptide derived from the beta-chain of human chorionic gonadotropin hormone (Khan et al. 2002)]
[4]
  septic shock in mice: inhibited septic shock in mice

Reference: US8680059B2, “Oligopeptide acetate and formulations thereof” (Biotempt B.V., priority 1998, dated 2014)
